As a reminder, the EC50 is the concentration needed to bring the measured effect to its halfway point.

Holding throughout (experiment): whole-cell patch clamp, V0.[…] shift, Hill fit
Format in all cases: cell-based

Assay [1] concerns the target KCNQ2/3 channel (KCNQ2/3 heteromers) (Homo sapiens, UniProt O43525+O43526).
Assay [2] addresses T1, KCNQ3 (homomer; KCNQ3T = KCNQ3-A315T) (Homo sapiens, UniProt O43525, A315T/F167A).
T1 sequence (O43525 1-872 F167A/A315T): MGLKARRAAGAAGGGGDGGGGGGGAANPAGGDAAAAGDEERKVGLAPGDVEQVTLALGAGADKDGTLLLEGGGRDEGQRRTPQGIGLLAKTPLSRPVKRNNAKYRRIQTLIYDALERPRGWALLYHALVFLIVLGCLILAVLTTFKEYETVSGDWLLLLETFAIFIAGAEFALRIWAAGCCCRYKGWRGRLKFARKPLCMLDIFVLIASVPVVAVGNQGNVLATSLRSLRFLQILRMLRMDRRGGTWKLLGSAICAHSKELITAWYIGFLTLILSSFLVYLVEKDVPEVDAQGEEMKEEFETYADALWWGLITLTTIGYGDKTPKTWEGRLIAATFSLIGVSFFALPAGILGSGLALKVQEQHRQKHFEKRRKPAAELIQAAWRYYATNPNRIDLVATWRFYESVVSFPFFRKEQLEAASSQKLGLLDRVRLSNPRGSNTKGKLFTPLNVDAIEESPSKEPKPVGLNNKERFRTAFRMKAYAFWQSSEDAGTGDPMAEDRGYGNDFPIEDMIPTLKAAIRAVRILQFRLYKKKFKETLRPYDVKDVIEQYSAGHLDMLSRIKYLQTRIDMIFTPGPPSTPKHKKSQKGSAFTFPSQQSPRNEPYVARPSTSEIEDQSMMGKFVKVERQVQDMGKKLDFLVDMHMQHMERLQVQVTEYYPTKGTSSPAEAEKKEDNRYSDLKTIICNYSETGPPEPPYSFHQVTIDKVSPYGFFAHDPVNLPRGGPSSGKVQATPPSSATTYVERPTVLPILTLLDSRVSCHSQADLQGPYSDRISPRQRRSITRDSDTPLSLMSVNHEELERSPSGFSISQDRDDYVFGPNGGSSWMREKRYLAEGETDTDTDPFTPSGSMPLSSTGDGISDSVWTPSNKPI

In assay [3] the target is T2, KCNQ3 (homomer; KCNQ3T = KCNQ3-A315T) (Homo sapiens, UniProt O43525, A315T).
T2 sequence (O43525 1-872 A315T): T1 sequence (O43525 1-872 F167A/A315T) with A167F

Assay [4] has as its target T3, KCNQ3 (homomer; KCNQ3T = KCNQ3-A315T) (Homo sapiens, UniProt O43525, A315T/S209A).
T3 sequence (O43525 1-872 S209A/A315T): T1 sequence (O43525 1-872 F167A/A315T) with A167F, S209A

Structures are written as SMILES. Positions count from the first letter of the chain named.

Sequence of KCNQ2/3 channel (KCNQ2/3 heteromers) (O43525 whole entry): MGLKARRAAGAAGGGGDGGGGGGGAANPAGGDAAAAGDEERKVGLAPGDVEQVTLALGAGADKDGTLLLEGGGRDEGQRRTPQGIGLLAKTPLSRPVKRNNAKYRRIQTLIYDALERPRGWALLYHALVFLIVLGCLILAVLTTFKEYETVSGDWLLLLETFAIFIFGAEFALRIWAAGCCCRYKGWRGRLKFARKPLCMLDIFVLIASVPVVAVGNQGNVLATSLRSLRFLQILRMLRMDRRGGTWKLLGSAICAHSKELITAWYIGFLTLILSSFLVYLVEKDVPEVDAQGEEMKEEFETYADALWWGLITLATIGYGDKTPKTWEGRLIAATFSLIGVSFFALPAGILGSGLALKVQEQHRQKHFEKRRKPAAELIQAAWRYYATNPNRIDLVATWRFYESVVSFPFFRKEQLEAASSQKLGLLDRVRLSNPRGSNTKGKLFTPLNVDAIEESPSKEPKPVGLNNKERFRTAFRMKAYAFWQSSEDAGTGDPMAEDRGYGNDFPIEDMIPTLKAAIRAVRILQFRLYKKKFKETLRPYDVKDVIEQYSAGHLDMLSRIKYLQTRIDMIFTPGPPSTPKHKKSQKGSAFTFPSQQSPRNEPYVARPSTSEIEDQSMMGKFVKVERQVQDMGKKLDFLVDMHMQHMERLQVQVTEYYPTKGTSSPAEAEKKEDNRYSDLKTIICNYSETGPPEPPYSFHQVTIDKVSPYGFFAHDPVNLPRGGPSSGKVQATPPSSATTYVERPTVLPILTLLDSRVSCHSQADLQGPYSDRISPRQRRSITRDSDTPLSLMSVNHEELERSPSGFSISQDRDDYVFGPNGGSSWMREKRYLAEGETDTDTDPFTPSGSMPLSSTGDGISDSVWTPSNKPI
Sequence of KCNQ2/3 channel (KCNQ2/3 heteromers) (O43526 whole entry): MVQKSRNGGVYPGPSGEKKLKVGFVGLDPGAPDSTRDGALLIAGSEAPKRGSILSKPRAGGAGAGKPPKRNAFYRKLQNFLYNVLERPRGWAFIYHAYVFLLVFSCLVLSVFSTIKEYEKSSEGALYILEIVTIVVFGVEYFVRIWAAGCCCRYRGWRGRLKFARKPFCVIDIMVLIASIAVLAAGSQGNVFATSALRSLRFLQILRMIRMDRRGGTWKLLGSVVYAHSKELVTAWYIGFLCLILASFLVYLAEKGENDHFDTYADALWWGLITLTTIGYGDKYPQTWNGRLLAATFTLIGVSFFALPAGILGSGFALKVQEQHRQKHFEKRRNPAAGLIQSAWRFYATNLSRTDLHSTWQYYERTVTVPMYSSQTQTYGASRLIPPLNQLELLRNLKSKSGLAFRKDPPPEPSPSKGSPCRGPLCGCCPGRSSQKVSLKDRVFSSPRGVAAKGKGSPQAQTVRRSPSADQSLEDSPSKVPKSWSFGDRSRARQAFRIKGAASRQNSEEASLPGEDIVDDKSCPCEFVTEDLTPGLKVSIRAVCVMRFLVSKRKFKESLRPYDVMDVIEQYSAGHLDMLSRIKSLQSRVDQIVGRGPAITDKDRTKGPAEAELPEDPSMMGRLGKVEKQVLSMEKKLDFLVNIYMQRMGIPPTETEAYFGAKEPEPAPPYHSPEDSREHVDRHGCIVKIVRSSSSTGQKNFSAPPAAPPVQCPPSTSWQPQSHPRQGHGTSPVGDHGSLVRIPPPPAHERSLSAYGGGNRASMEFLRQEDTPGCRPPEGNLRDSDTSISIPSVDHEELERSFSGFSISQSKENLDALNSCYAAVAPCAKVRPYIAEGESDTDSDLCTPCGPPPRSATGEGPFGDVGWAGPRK

Turning to `CCOC(=O)Nc1ccc(NCc2ccc(F)cc2)cc1N` [retigabine], in assay [1], the half-maximal effective concentration (EC50) amounted to 3.6 µM.
As for `Oc1cc(Cl)ccc1Oc1ccc(Cl)cc1Cl` [triclosan], the EC50 in assay [2] came out at 42 µM; in assay [3] it was 38 µM; in assay [4], 46 µM; in assay [1], 32 µM.
